According to US20070244199A1 (priority 2006, published 2007):
Converted amounts (≈) assume the structure as drawn. “Also recorded” adds a separate entry of the source.

Legend:
M. tuberculosis (H37Rv) = assay: BACTEC radiometric MIC determination against M. tuberculosis; type: cell-based; conditions: Mycobacterium tuberculosis, read-out: MIC against M.tb
[1] = Pro-drug decomposition at acid and physiologic pH; type: physicochemical
Procedure: At physiologic pH (or about 7.5), the molecule slowly breaks down (with a half-time of about 15 hours) to release DSA. This property would enhance the prolonged maintenance of plasma concentrations of the active drug. The MICs of these pro-drug molecules are 6.25 μg/ml (for the 10 carbon compound) and 12.5 μg/ml (for the 8 carbon compound).

M. bovis BCG = assay: microbe, parasite or virus in culture; type: cell-based, Mycobacterium bovis BCG; conditions: for MIC: Mycobacterium tuberculosis variant bovis BCG, BCG, read-out: minimum inhibitory concentration (MIC)
[2] = system: M. avium subspecies paratuberculosis (PTB); assay: BACTEC inhibition of PTB (paratuberculosis); type: cell-based, Mycobacterium avium subspecies paratuberculosis; conditions: for activity against PTB (BACTEC growth index over time): single agents at the highest concentration
Excerpt: The MIC was defined as the lowest inhibitor concentration that yielded a growth index change less than that of the 1:100 control bottle. A modification of this protocol was used for MIC determinations of MAC and M. avium subspecies paratuberculosis (Parrish, 2004). Susceptibilities and MIC determinations of M. tuberculosis isolates to isoniazid, streptomycin, ethambutol, rifampin, and pyrazinamide were done using standard BACTEC methods (Siddiqi, 1992). All primary drugs were purchased from Becton Dickinson (Sparks, Md.).
The inhibition assay was performed essentially as described in Example 1 for TB and BCG. Briefly, PTB inoculum was standardized by use of “seed vials” of a suspension of microorganisms in supplemented media. The suspension was vortexed with glass beads and then 0.3 ml to 0.5 ml was introduced into individual supplemented BACTEC 12B vials. Vials were subsequently incubated at 37° C. and the GI recorded until reaching 999. At that time, 0.3 ml of the “seed vial” was introduced into test and compound containing vials. Vials were then read at 24-hour intervals and the rest of the procedure followed as for TB and BCG. The MIC determination was the same as for TB and BCG.

mycobacteria = assay: In vitro sterilizing model; type: cell-based
[3] = system: latent (hypoxic) mycobacteria; assay: Killing of latent (hypoxic) mycobacteria in vitro; type: cell-based
[4] = agent alone at 1.5 μg/ml (FIG. 1, FIG. 2)
[5] = agent alone, DSA at 1/2, 1/4, or 1/8 of the MIC, NSA or OSA at the same concentrations as DSA (FIG. 1)
[6] = PTB strain #2, combination at 12.5 or 25.0 μg/ml each (FIG. 5)
[7] = PTB strain #4, combination at 12.5 or 25.0 μg/ml each (FIG. 6)
[8] = PTB strain #8, combination at 12.5 or 25.0 μg/ml each (FIG. 7)
[9] = PTB strain #15, combination at 12.5 or 25.0 μg/ml each (FIG. 9)
[10] = PTB strain #13, combination at 12.5 or 25.0 μg/ml each (FIG. 8)

Structure (SMILES) | MIC (M. tuberculosis (H37Rv)) [µg/mL] | decomposition in acid pH ([1]; acid pH) | half-time of breakdown to release DSA ([1]; physiologic pH (or about 7.5)) | MIC (M. bovis BCG) [µg/mL] | inhibition of growth of M. bovis BCG cells (M. bovis BCG; [4]) | inhibition of growth of M. bovis BCG cells (M. bovis BCG; [5]) | MIC ([2]; Mycobacterium avium, agent alone (FIGS. 4-9), read-out: MIC, various strains of PTB) [µg/mL] | activity against PTB (BACTEC growth index over time) [2, 6] | activity against PTB (BACTEC growth index over time) [2, 7] | activity against PTB (BACTEC growth index over time) [2, 8] | activity against PTB (BACTEC growth index over time) [2, 9] | activity in an in vitro sterilizing model (mycobacteria) | killing of latent (hypoxic) mycobacteria in vitro [3] | activity against PTB (BACTEC growth index over time) [2, 10] | MIC, various strains of PTB ([2]; agent alone (FIGS. 4-9))
CCCCCCCCCCS(=O)(=O)CC(=O)NCN1CCOCC1 [10 carbon compound] | 6.25 (≈ 17.2 µM) | resists decomposition | about 15 hours | – | – | – | – | – | – | – | – | – | – | – | –
CCCCCCCCCCS(=O)(=O)CC(N)=O [DSA, n-decanesulphonylacetamide] | ~1 (≈ 3.8 µM) | – | – | 1.5 (≈ 5.69 µM) | some activity; also recorded: inhibit the growth | no effect | ≥ 25 | some activity | some activity | some activity | some activity | active | kill latent (hypoxic) mycobacteria | – | –
CCCCCCCCCS(=O)(=O)CC(N)=O [NSA, n-nonanesulphonylacetamide] | – | – | – | 3 (≈ 12 µM) | ineffective | no effect | – | some activity | some activity | some activity | some activity | – | – | some activity | considerably higher
CCCCCCCCS(=O)(=O)CC(N)=O [OSA, n-octanesulphonylacetamide] | – | – | – | 6.25 (≈ 26.6 µM) | ineffective | no effect | – | no activity | no activity | no activity | no activity | – | – | no activity | considerably higher
